Reference: US20230107642A1 (Erasca, Inc., priority 2020, published 2023)

target: T1, K-Ras G12C (Homo sapiens, UniProt P01116, G12C); assay: CAF assay (% CAF; method in Example 7, not in this part); format: binding; settings: 10 uM compound, 1 h incubation
T1 construct: This protein contained 188 amino acids in total, including an N-terminal 6-Histidine tag; made in house; host or cells: E. coli BL21

| Structure (SMILES) | % CAF @ 10 uM, 1h |
| --- | --- |
| C=CC(=O)N1C[C@H](C)N(c2nc(=O)n3c4c(c(-c5ccc(F)cc5F)c(Cl)cc24)SC[C@@H]3CC2CCN(CC(F)F)CC2)C[C@H]1C [Example 477, (3S)-7-((2S,5R)-4-acryloyl-2,5-dimethylpiperazin-1-yl)-9-chloro-3-((1-(2,2-difluoroethyl)piperidin-4-yl)methyl)-10-(2,4-difluorophenyl)-2H-[1,4]thiazino[2,3,4-ij]quinazolin-5(3H)-one] | 63.5% |
| C=CC(=O)N1C[C@H](C)N(c2nc(=O)n3c4c(c(-c5ccc(F)cc5F)c(Cl)cc24)SC[C@@H]3CC2CCN(C3CC3)CC2)C[C@H]1C [Example 478, (3S)-7-((2S,5R)-4-acryloyl-2,5-dimethylpiperazin-1-yl)-9-chloro-3-((1-cyclopropylpiperidin-4-yl)methyl)-10-(2,4-difluorophenyl)-2H-[1,4]thiazino[2,3,4-ij]quinazolin-5(3H)-one] | 70.7% |
| C=CC(=O)N1CCN(c2nc(=O)n3c4c(c(-c5ccc(F)cc5F)c(Cl)cc24)SC[C@H]3COCOC)[C@@H](C)C1 [Example 479, (3R)-7-((S)-4-acryloyl-2-methylpiperazin-1-yl)-9-chloro-10-(2,4-difluorophenyl)-3-((methoxymethoxy)methyl)-2H-[1,4]thiazino[2,3,4-ij]quinazolin-5(3H)-one] | 42% |
| C=CC(=O)N1C[C@H](C)N(c2nc(=O)n3c4c(c(-c5ccc(F)cc5)c(C(F)(F)F)cc24)SC[C@@H]3CC2CN(CC(F)F)C2)C[C@H]1C [Example 481, (S)-7-((2S,5R)-4-acryloyl-2,5-dimethylpiperazin-1-yl)-3-((1-(2,2-difluoroethyl)azetidin-3-yl)methyl)-10-(4-fluorophenyl)-9-(trifluoromethyl)-2,3-dihydro-5H-[1,4]thiazino[2,3,4-ij]quinazolin-5-one] | 59.4% |
| C=CC(=O)N1C2CC(=O)CC1CN(c1nc(=O)n3c4c(c(-c5ccc(F)cc5F)c(C(F)(F)F)cc14)SCCC3)C2 [Example 486, 8-(9-acryloyl-7-oxo-3,9-diazabicyclo[3.3.1]nonan-3-yl)-11-(2,4-difluorophenyl)-10-(trifluoromethyl)-3,4-dihydro-2H,6H-[1,4]thiazepino[2,3,4-ij]quinazolin-6-one] | 95% |
| C=CC(=O)N1CCN(c2nc(=O)n3c4c(c(-c5ccc(F)cc5F)c(Cl)cc24)SC[C@H](OC)C3)[C@@H](C)C1 [Example 488, (3R)-8-((S)-4-acryloyl-2-methylpiperazin-1-yl)-10-chloro-11-(2,4-difluorophenyl)-3-methoxy-3,4-dihydro-2H,6H-[1,4]thiazepino[2,3,4-ij]quinazolin-6-one] | 96% |
| C=CC(=O)N1C[C@H](C)N(c2nc(=O)n3c4c(c(-c5cc(Cl)c(F)cc5F)c(C(F)(F)F)cc24)SC[C@@H]3COC)C[C@H]1C [Example 492, (3S)-7-((2S,5R)-4-acryloyl-2,5-dimethylpiperazin-1-yl)-10-(5-chloro-2,4-difluorophenyl)-3-(methoxymethyl)-9-(trifluoromethyl)-2H-[1,4]thiazino[2,3,4-ij]quinazolin-5(3H)-one] | 63.2% |
| C=CC(=O)N1C[C@H](C)N(c2nc(=O)n3c4c(c(-c5cc(Cl)c(F)cc5F)c(Cl)cc24)SC[C@@H]3COC)C[C@H]1C [Example 496, (3S)-7-((2S,5R)-4-acryloyl-2,5-dimethylpiperazin-1-yl)-9-chloro-10-(5-chloro-2,4-difluorophenyl)-3-(methoxymethyl)-2H-[1,4]thiazino[2,3,4-ij]quinazolin-5(3H)-one] | 65.3% |

Next, values leading:

| % CAF @ 10 uM, 1h | Structure (SMILES) |
| --- | --- |
| 53.8% | C=CC(=O)N1C[C@H](C)N(c2nc(=O)n3c4c(c(-c5cc(F)c(F)cc5F)c(Cl)cc24)SC[C@@H]3CC2CCN(CC(F)F)CC2)C[C@H]1C [Example 476, (3S)-7-((2S,5R)-4-acryloyl-2,5-dimethylpiperazin-1-yl)-9-chloro-3-((1-(2,2-difluoroethyl)piperidin-4-yl)methyl)-10-(2,4,5-trifluorophenyl)-2H-[1,4]thiazino[2,3,4-ij]quinazolin-5(3H)-one] |
| 61.2% | C=CC(=O)N1CCN(c2nc(=O)n3c4c(c(-c5cc(F)c(F)cc5F)c(Cl)cc24)SC[C@@H]3CN2CCN(CC(F)F)CC2)[C@@H](C)C1 [Example 480, (3S)-7-((S)-4-acryloyl-2-methylpiperazin-1-yl)-9-chloro-3-((4-(2,2-difluoroethyl)piperazin-1-yl)methyl)-10-(2,4,5-trifluorophenyl)-2H-[1,4]thiazino[2,3,4-ij]quinazolin-5(3H)-one] |
| 96% | C=CC(=O)N1CCN(c2nc(=O)n3c4c(c(-c5ccc(F)cc5F)c(Cl)cc24)SC[C@@H](OC)C3)[C@@H](C)C1 [Example 487, (3S)-8-((S)-4-acryloyl-2-methylpiperazin-1-yl)-10-chloro-11-(2,4-difluorophenyl)-3-methoxy-3,4-dihydro-2H,6H-[1,4]thiazepino[2,3,4-ij]quinazolin-6-one] |
| 96% | C=CC(=O)N1CCN(c2nc(=O)n3c4c(c(-c5ccc(F)cc5F)c(C(F)(F)F)cc24)SC[C@@H](OC)C3)CC1 [Example 489, (3S)-8-(4-acryloylpiperazin-1-yl)-11-(2,4-difluorophenyl)-3-methoxy-10-(trifluoromethyl)-3,4-dihydro-2H,6H-[1,4]thiazepino[2,3,4-ij]quinazolin-6-one] |
| 60% | C=CC(=O)N1C[C@H](C)N(c2nc(=O)n3c4c(c(-c5cc(F)c(F)cc5F)c(C(F)(F)F)cc24)SC[C@@H]3COC)C[C@H]1C [Example 491, (3S)-7-((2S,5R)-4-acryloyl-2,5-dimethylpiperazin-1-yl)-3-(methoxymethyl)-9-(trifluoromethyl)-10-(2,4,5-trifluorophenyl)-2H-[1,4]thiazino[2,3,4-ij]quinazolin-5(3H)-one] |
| 78.6% | C=CC(=O)N1C[C@H](C)N(c2nc(=O)n3c4c(c(-c5ccc(F)cc5F)c(C(F)(F)F)cc24)SC[C@@H]3COC)C[C@H]1C [Example 493, (3S)-7-((2S,5R)-4-acryloyl-2,5-dimethylpiperazin-1-yl)-10-(2,4-difluorophenyl)-3-(methoxymethyl)-9-(trifluoromethyl)-2H-[1,4]thiazino[2,3,4-ij]quinazolin-5(3H)-one] |
| 68.7% | C=CC(=O)N1C[C@H](C)N(c2nc(=O)n3c4c(c(-c5ccc(F)cc5F)c(Cl)cc24)SC[C@@H]3COC)C[C@H]1C [Example 494, (3S)-7-((2S,5R)-4-acryloyl-2,5-dimethylpiperazin-1-yl)-9-chloro-10-(2,4-difluorophenyl)-3-(methoxymethyl)-2H-[1,4]thiazino[2,3,4-ij]quinazolin-5(3H)-one] |
| 50.8% | C=CC(=O)N1C[C@H](C)N(c2nc(=O)n3c4c(c(-c5cc(Cl)c(F)cc5F)c(Cl)cc24)SC[C@@H]3CN2CCN(CC(F)F)CC2)C[C@H]1C [Example 495, (3S)-7-((2S,5R)-4-acryloyl-2,5-dimethylpiperazin-1-yl)-9-chloro-10-(5-chloro-2,4-difluorophenyl)-3-((4-(2,2-difluoroethyl)piperazin-1-yl)methyl)-2H-[1,4]thiazino[2,3,4-ij]quinazolin-5(3H)-one] |
